# According to patent publication US20260365670A1, “EGFR INHIBITORS AND USES THEREOF” (DIZAL (JIANGSU) PHARMACEUTICAL CO., LTD., priority 2022, published 2026):
# Like-named read-outs stand apart in the source and are kept apart here.
# Assays:
# [1] = molecular target: T1, EGFR[T790M/C797S/d746-750] (Homo sapiens, UniProt P00533, C797S/DEL746-750/T790M); assay: Inhibition of EGFR[T790M/C797S/d746-750] biochemical enzymatic activity (HTRF); settings: 1 mM ATP, 1 h at room temperature
# T1 construct: purchased Carna Bio
# Procedure, shortened: (§1)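 1 mM ATP, 1 μM biotin-TK peptide, 5 mM MgCl2, 1 mM MnCl2, 0.01% CHAPS, 1 mM DTT, 0.5% DMSO; 1 h RT; EDTA stop; HTRF 665/615 nm; IC50 via 4PL.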
# [2] = molecular target: T2, EGFR (d746-750 C797S) (Homo sapiens, UniProt P00533, C797S/DEL746-750); assay: Inhibition of EGFR (d746-750 C797S) biochemical enzymatic activity (HTRF); settings: EGFR (d746-750 C797S), 1 mM ATP, 1 h at room temperature
# T2 construct: purchased signalchem
# Procedure, shortened: as §1
# [3] = test system: PC-9; assay: Cell proliferation assay, PC-9 cells (CellTiter-Glo, 72 hours); format: cell-based; settings: PC9 cells, read-out: GI50 PC9
# Procedure, shortened: (§2)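 Cells are exposed to graded compound concentrations after overnight plating, using 500 PC-9 or 5000 Ba/F3 per well. Baseline-subtracted viability is compared with vehicle to give percent proliferation, then GI50.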
# [4] = molecular target: T3, EGFR L858R/T790M (Homo sapiens, UniProt P00533, L858R/T790M); assay: Inhibition of EGFR L858R/T790M biochemical enzymatic activity (HTRF); settings: EGFR L858R/T790M, 1 mM ATP, 1 h at room temperature
# T3 construct: purchased Carna Bio
# Procedure, shortened: as §1
# [5] = molecular target: T4, EGFR wild type (Homo sapiens, UniProt P00533); assay: Inhibition of EGFR wild type biochemical enzymatic activity (HTRF); settings: EGFR wild type, 1 mM ATP, 1 h at room temperature
# T4 construct: purchased Carna Bio
# Procedure, shortened: as §1
# [6] = molecular target: T5, EGFR[T790M/C797S/L858R] (Homo sapiens, UniProt P00533, C797S/L858R/T790M); assay: Inhibition of EGFR[T790M/C797S/L858R] biochemical enzymatic activity (HTRF); settings: EGFR[T790M/C797S/L858R], 1 mM ATP, 1 h at room temperature
# T5 construct: purchased Carna Bio
# Procedure, shortened: as §1
# [7] = molecular target: T6, EGFR Exon19Del/T790M (Homo sapiens, UniProt P00533, DEL746-750/T790M); assay: Inhibition of EGFR Exon19Del/T790M biochemical enzymatic activity (HTRF); settings: EGFR Exon19Del/T790M, 1 mM ATP, 1 h at room temperature
# T6 construct: purchased Carna Bio
# Procedure, shortened: as §1
# [8] = molecular target: T7, EGFR L858R (Homo sapiens, UniProt P00533, L858R); assay: Inhibition of EGFR L858R biochemical enzymatic activity (HTRF); settings: 1 mM ATP, 1 h at room temperature
# T7 construct: purchased Carna Bio
# Procedure, shortened: as §1
# [9] = test system: A-431; assay: Cell proliferation assay, A-431 cells (GI50, Table 6); format: cell-based
# Experimental: [Worded in the source for another cell line; this cell line is reported under the same test.] Ba/F3 cells expressing EGFR mutations were seeded in 384-well plates at 5000 cells/well in RPMI1640 medium containing […]. PC-9 at 500 cells/well was seeded into 384-well plates in RPMI1640 medium with 10% FBS. After overnight incubation, the assay plates were dosed with compounds at a series of concentrations. Alongside dosing the assay plates, the day 0 plate was processed using CellTiter-Glo® Luminescent Cell Viability Assay (Promega) to measure the number of viable cells (G0). The assay plates were further incubated for 72 hours and the number of viable cells (G3) was measured. The percentage of proliferation was calculated as: […]=100×(G3 value of sample well−G0 value)/(G3 value of DMSO control−G0 value). The concentration of compound producing 50% proliferation inhibition (GI50) was further calculated in best-fit curves using XLFit software. N/A=not available.
# [10] = molecular target: T8, EGFR Exon19Del (Homo sapiens, UniProt P00533, DEL746-750); assay: Inhibition of EGFR Exon19Del biochemical enzymatic activity (HTRF); settings: 1 mM ATP, 1 h at room temperature
# T8 construct: purchased Carna Bio
# Procedure, shortened: as §1
# [11] = test system: Ba/F3 cells expressing EGFR mutations; assay: Cell proliferation assay, Ba/F3 cells expressing EGFR mutations (CellTiter-Glo, 72 hours); format: cell-based
# Procedure, shortened: as §2
# [12] = molecular target: T9, EGFR (C797S L858R) (Homo sapiens, UniProt P00533, C797S/L858R); assay: Inhibition of EGFR (C797S L858R) biochemical enzymatic activity (HTRF); settings: EGFR (C797S L858R), 1 mM ATP, 1 h at room temperature
# T9 construct: purchased signalchem
# Procedure, shortened: as §1
# [13] = EGFR[T790M/C797S/d746-750], read-out: IC50 @T790M - C797S - Del19
# [14] = read-out: IC50 @T790M- C797S - L858R
# [15] = EGFR Exon19Del, read-out: IC50 @Del19
# [16] = BaF3 cells, EGFR DEL19 - C797S, read-out: GI50 DEL19 - C797S/BaF3
# [17] = BaF3 cells, EGFR DEL19 - T790-C797S, read-out: GI50 DEL19 - T790-C797S/BaF3
# [18] = BaF3 cells, EGFR L858R - C797S, read-out: GI50 L858R - C797S/BaF3
# [19] = BaF3 cells, EGFR L858R - T790-C797S, read-out: GI50 L858R - T790-C797S/BaF3
# [20] = BaF3 cells, EGFR L858R - T790M, read-out: GI50 L858R - T790M/BaF3
# [21] = BaF3 cells, EGFR L858R, read-out: GI50 L858R/BaF3
# [22] = EGFR DEL19 - T790M, read-out: GI50 DEL19 - T790M
# [23] = Homo sapiens, A-431, A-431 cells
# T4 sequence (P00533 25-1210): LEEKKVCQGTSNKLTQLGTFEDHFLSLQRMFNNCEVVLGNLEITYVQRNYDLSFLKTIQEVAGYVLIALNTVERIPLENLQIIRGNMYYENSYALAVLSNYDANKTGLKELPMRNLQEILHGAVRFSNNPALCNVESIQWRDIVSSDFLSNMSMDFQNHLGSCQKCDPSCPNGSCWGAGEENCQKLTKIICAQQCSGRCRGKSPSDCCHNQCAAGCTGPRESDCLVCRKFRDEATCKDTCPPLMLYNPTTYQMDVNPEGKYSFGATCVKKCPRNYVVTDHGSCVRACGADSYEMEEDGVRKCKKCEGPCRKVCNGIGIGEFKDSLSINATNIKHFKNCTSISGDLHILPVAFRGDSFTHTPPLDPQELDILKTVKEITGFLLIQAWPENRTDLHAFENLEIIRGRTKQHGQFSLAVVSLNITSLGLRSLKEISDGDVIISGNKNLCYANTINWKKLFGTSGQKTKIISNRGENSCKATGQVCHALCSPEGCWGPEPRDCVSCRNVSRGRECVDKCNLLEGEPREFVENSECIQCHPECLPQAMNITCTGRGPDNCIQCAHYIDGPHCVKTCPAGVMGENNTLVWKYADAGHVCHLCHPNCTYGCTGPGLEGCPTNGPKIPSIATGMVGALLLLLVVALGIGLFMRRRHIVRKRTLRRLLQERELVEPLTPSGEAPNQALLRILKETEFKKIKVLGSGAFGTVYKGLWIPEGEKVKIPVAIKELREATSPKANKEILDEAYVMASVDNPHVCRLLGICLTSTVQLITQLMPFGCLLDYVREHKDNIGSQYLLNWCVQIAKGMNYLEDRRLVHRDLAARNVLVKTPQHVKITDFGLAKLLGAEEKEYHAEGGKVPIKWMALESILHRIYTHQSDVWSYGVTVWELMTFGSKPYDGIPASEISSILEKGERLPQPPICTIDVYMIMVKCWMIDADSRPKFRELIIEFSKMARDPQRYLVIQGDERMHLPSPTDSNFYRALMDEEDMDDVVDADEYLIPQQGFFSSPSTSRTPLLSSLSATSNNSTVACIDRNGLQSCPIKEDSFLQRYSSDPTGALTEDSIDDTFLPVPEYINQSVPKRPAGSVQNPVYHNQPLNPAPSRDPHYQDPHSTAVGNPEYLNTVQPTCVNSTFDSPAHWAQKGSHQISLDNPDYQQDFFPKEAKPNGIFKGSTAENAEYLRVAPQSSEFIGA
# T1 sequence (P00533 with tags, fused parts or gaps DEL746-750/T790M/C797S limits assumed): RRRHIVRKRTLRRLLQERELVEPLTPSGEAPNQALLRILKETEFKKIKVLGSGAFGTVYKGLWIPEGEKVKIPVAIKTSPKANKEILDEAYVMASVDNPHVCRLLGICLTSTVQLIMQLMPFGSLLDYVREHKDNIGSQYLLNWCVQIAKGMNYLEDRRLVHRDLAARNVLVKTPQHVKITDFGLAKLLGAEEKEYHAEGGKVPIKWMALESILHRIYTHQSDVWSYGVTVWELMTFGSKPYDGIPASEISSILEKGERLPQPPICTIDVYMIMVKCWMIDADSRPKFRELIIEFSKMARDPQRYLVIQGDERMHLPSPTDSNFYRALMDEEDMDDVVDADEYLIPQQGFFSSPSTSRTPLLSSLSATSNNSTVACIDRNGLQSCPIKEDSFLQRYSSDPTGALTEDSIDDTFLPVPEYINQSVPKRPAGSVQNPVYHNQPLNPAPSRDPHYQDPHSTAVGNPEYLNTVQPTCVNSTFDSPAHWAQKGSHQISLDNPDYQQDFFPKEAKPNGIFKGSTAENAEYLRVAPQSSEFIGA
# T9 sequence (P00533 25-1210 C797S/L858R): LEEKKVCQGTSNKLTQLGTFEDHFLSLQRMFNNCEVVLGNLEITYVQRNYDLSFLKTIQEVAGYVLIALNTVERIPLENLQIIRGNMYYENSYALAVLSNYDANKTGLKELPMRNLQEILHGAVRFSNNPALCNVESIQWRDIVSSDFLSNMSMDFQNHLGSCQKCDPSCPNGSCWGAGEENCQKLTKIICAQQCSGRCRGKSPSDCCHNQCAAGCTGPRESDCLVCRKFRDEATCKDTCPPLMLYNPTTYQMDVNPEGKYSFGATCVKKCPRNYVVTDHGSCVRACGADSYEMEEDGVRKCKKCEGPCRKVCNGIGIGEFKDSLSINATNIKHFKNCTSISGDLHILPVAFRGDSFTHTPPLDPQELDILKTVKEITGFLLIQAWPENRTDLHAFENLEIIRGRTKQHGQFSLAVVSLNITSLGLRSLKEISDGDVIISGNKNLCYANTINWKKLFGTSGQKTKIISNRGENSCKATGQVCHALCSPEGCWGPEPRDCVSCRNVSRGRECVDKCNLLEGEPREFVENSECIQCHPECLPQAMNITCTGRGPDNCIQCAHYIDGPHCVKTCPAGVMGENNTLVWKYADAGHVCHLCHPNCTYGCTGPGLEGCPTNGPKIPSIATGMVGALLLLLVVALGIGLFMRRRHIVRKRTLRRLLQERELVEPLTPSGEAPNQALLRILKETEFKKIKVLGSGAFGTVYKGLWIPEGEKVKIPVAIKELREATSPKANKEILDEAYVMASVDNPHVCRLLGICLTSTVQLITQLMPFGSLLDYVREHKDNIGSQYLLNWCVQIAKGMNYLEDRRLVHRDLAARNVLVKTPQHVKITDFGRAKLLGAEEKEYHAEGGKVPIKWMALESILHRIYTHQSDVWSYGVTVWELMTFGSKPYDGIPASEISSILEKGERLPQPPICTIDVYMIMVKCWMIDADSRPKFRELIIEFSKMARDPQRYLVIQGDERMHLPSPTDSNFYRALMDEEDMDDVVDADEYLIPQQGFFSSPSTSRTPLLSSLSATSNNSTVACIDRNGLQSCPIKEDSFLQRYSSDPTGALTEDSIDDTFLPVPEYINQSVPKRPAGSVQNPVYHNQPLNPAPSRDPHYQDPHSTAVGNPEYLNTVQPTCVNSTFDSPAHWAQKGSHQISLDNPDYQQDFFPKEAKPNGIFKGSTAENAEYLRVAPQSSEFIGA
# T5 sequence (P00533 25-1210 T790M/C797S/L858R): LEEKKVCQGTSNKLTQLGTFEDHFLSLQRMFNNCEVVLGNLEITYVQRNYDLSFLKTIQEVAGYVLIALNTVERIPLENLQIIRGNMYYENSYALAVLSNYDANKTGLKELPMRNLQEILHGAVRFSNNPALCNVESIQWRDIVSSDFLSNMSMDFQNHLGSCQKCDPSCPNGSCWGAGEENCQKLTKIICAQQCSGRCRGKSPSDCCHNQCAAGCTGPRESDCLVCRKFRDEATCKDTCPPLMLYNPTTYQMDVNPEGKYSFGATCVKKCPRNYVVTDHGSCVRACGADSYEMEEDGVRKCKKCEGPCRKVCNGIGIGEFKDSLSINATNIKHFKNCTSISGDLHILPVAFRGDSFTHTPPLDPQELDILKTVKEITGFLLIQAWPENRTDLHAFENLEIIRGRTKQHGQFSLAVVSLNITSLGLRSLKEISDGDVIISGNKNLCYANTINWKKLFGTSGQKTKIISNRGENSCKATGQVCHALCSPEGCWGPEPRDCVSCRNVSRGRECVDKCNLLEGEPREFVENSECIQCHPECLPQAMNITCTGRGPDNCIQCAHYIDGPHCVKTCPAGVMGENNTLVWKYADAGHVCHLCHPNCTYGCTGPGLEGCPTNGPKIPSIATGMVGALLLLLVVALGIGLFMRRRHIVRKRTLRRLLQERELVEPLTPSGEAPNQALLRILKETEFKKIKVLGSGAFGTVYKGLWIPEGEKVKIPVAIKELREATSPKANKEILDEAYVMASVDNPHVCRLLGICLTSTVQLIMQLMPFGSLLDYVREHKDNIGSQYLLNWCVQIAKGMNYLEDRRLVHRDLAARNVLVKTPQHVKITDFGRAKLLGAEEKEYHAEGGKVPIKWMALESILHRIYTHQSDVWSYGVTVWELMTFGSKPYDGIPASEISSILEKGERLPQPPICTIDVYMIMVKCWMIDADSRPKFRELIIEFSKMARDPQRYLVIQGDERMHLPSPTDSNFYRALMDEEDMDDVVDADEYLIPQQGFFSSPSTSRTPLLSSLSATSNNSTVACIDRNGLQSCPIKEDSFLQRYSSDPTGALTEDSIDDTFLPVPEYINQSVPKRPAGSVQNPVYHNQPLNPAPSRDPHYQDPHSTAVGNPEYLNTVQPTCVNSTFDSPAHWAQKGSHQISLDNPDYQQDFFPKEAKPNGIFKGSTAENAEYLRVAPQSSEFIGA
# T2 sequence (P00533 with tags, fused parts or gaps DEL746-750/C797S limits assumed): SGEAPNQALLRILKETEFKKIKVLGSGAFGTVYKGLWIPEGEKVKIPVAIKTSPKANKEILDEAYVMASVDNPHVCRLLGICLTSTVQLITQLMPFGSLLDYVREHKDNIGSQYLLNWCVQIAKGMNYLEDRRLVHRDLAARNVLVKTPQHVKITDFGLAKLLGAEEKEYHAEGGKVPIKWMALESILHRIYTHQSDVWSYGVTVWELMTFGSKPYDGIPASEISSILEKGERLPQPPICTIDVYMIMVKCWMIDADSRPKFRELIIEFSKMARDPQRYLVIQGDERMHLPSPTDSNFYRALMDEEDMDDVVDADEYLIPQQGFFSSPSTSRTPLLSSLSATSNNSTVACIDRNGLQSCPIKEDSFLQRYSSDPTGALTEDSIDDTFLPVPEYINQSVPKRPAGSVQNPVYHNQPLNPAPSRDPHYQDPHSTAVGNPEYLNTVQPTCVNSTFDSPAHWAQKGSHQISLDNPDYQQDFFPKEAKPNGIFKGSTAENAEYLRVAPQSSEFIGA
SMILES,"IC50 [1, 13] [nM]",IC50 ([2]; read-out: IC50 @Del19-C797S) [nM],GI50 [3] [nM],IC50 ([4]; read-out: IC50 @L858R-T790M) [nM],IC50 ([5]; read-out: IC50 @WT) [nM],"IC50 [6, 14] [nM]",IC50 ([7]; read-out: IC50 @Del19-T790M) [nM],IC50 ([8]; read-out: IC50 @L858R) [nM],"IC50 [10, 15] [nM]","GI50 [11, 16] [nM]","GI50 [11, 17] [nM]","GI50 [11, 18] [nM]","GI50 [11, 19] [nM]","GI50 [11, 20] [nM]","GI50 [11, 21] [nM]","GI50 [11, 22] [nM]",IC50 ([12]; read-out: IC50 @L858-C797S) [nM],"GI50 [9, 23] [nM]",also measured
"Cc1cc2cc(n1)-c1cnn(C)c1OCCN1CC3CCC(C3)(C1)n1c(nc3ccc(N4CCOCC4)cc31)NC2=O (single isomer, unassigned) [Example B10B, 15,21-Dimethyl-5-(morpholin-4-yl)-23-oxa-2,9,11,16,20,21,26-heptaazaheptacyclo[24.4.1.1^{1,28}.1^{13,17}.0^{2,10}.0^{3,8}.0^{18,22}]tritriaconta-3,5,7,9,13,15,17(33),18(22),19-nonaen-12-one]",4040,1430,2620,> 5000,> 5000,> 5000,> 5000,> 5000,1080,403,516,1580,595,539,2910,765,> 5000,,GI50 ([9]; A-431 cells): 5520 nM
"Cc1cc2cc(n1)-c1cnn(C)c1OCCN1CC3CCC(C3)(C1)n1c(nc3ccc(N4CCC(N(C)C)CC4)cc31)NC2=O (single isomer, unassigned) [Example B40B, 5-[4-(dimethylamino)piperidin-1-yl]-15,21-dimethyl-23-oxa-2,9,11,16,20,21,26-heptaazaheptacyclo[24.4.1.1^{1,28}.1^{13,17}.0^{2,10}.0^{3,8}.0^{18,22}]tritriaconta-3,5,7,9,13,15,17(33),18(22),19-nonaen-12-one]",,,9,,,,,,,2,2,6,2,2,8,2,,333,"IC50 ([1]; IC50 @T790M - C797S - Del19, EGFR[T790M/C797S/d746-750]): 2.3 nM; IC50 ([2]; IC50 @Del19-C797S): 2.2 nM; IC50 ([4]; IC50 @L858R-T790M): 3.3 nM; IC50 ([5]; IC50 @WT): 100 nM; IC50 ([6]; IC50 @T790M- C797S - L858R): 2.4 nM; IC50 ([7]; IC50 @Del19-T790M): 4.7 nM; IC50 ([8]; IC50 @L858R): 15 nM; IC50 ([10]; IC50 @Del19, EGFR Exon19Del): 4.5 nM; IC50 ([12]; IC50 @L858-C797S): 4.4 nM"
"Cc1cc2cc(n1)-c1cnn(C)c1OCCN1CC3CCC(C3)(C1)n1c(nc3ccc(N4CC[C@H](N(C)C)C4)cc31)NC2=O (single isomer, unassigned) [Example B41B]",3.3,3,8,4.2,581,2.2,4.9,34,7.5,2,2,7,2,2,12,2,8.8,1790,
"Cc1cc2cc(n1)-c1cnn(C)c1OCCN1CC3CCC(C3)(C1)n1c(nc3ccc(N4CC5CN(C)CC5C4)cc31)NC2=O (single isomer, unassigned) [Example B43B]",3,3,7,4.8,489,2.3,5.2,36,6.6,2,2,7,2,2,12,2,9,437,
"Cc1cc2cc(n1)-c1cnn(C)c1OCCN1CC3CCC(C3)(C1)n1c(nc3ccc(N4CCC(N5CCOCC5)C4)cc31)NC2=O (single isomer, unassigned) [Example B44B1]",8.8,12,22,19,> 5000,6.4,12,337,34,2,2,6,2,2,24,7,66,3690,
